We go through eight molecules from patent US5488037A, “Antithrombotic agents” (Eli Lilly and Company, priority 1994, dated 1996).

Data set [1] in a line: Index of bioavailability: plasma thrombin time (TT) time course after i.v. bolus and oral treatment of rats. The class given is in vivo, rat. Conditions: dose-adjusted AUC of plasma TT, p.o. (fasted conscious rats) relative to i.v. bolus (anesthetized rats). From the text:
Assays are done in duplicate and averaged.
Each sample population represents alternating sequential time points.

The target in the next data set is human thrombin (Homo sapiens, UniProt P00734). The data set can be described thus: Inhibition of the amidase activity of human thrombin (chromogenic substrate, Kass). The class given is biochemical. The settings on record: apparent association constant, mean over a range of test compound concentrations; purified human thrombin, substrate N-benzoyl-Phe-Val-Arg-p-nitroanilide, pH 7.4. How it is done: The assay is carried out by mixing 50 μl buffer (0.03M Tris, 0.15M NaCl, pH 7.4) with 25 μl of human thrombin solution (purified human thrombin, Enzyme Research Laboratories, South Bend, Ind., at 8 NIH units/ml) and 25 μl of test compound in a solvent (50% aqueous methanol (v:v)). Then 150 μl of an aqueous solution of the chromogenic substrate (at 0.25 mg/ml) are added and the rates of hydrolysis of the substrate are measured by monitoring the reactions at 405 nm for the release of p-nitroaniline. Standard curves are constructed by plotting free thrombin concentration against hydrolysis rate. The hydrolysis rates observed with test compounds are then converted to "free thrombin" values in the respective assays by use of the standard curves. The bound thrombin (bound to test compound) is calculated by subtracting the amount of free thrombin observed in each assay from the known initial amount of thrombin used in the assay. The amount of free inhibitor in each assay is calculated by subtracting the number of moles of bound thrombin from the number of moles of added inhibitor (test compound).
The Kass value is the hypothetical equilibrium constant for the reaction between thrombin and the test compound (I). [drawing 45]
Kass is calculated for a range of concentrations of test compounds and the mean value reported in units of liter per mole.

Turning to `CNC(CC(=O)N1CCC[C@H]1C(=O)N[C@H](C=O)CCCNC(=N)N)c1ccccc1.Cl.Cl.O.O` (stereo partly drawn) [Example 1, N-methyl-3-amino-3-phenylpropionyl-L-Prolinyl-L-Arginine Aldehyde Dihydrochloride Dihydrate], in data set [1], the “Index of Bioavailability, Percent Relative Activity” value (from here on “Index … Percent Relative Activity”) was determined as 28%. For the same molecule, the “Human Thrombin Inhibition Levels, Kass × 10^6 (l/mole)” value (shortened to “Human Thrombin Inhibition Levels”) on human thrombin is recorded as 70 × 10^6 l/mole.

Consider `CNC(CC(=O)N1CCC[C@H]1C(=O)N[C@H](C=O)CCCNC(=N)N)C1CCCCC1.CNC(CC(=O)N1CCC[C@H]1C(=O)N[C@H](C=O)CCCNC(=N)N)C1CCCCC1.Cl.Cl.Cl.Cl.O` (stereo partly drawn) [Example 2, N-methyl-3-amino-3-cyclohexyl propionyl-L-Pro-L-Arg aldehyde dihydrochloride hemihydrate], for which, in data set [1], the “Index … Percent Relative Activity” value is recorded as 19%. The “Human Thrombin Inhibition Levels” value on human thrombin is reported as 85 × 10^6 l/mole.

For the molecule `CNCC(Cc1ccccc1)C(=O)N1CCC[C@H]1C(=O)N[C@H](C=O)CCCNC(=N)N.Cl.Cl.O` (stereo partly drawn) [Example 3, N-Methyl-3-amino-2-benzylpropionyl-L-Pro-L-Arg Aldehyde Dihydrochloride Monohydrate], in data set [1], the “Index … Percent Relative Activity” value was found to be 8%. Besides, at human thrombin, the “Human Thrombin Inhibition Levels” value was 12 × 10^6 l/mole.

Turning to `Cl.Cl.N=C(N)NCCC[C@@H](C=O)NC(=O)[C@@H]1CCCN1C(=O)CN1CCCCC1.O` [Example 4, 2-(2-Piperidino)acetyl-L-Pro-L-Arginine Aldehyde Dihydrochloride Monohydrate], the “Human Thrombin Inhibition Levels” value on human thrombin is 1 × 10^6 l/mole.

Take `Cl.Cl.N=C(N)NCCC[C@@H](C=O)NC(=O)[C@@H]1CCCN1C(=O)C1CCCNC1.O` (stereo partly drawn) [Example 5, 3-piperidinocarbonyl-L-Pro-L-Arginine Aldehyde Dihydrochloride Monohydrate]: on human thrombin, the “Human Thrombin Inhibition Levels” value is listed as 2 × 10^6 l/mole.

As for `Cl.Cl.N=C(N)NCCC[C@@H](C=O)NC(=O)[C@@H]1CCCN1C(=O)C1CNC2CCCCC21.O` (stereo partly drawn) [Example 6, 3-perhydroindolylcarbonyl-L-Pro-L-Arginine Aldehyde Dihydrochloride Monohydrate], at human thrombin, the “Human Thrombin Inhibition Levels” value is 11 × 10^6 l/mole.

For the molecule `CNC1CCCCC1C(=O)N1CCC[C@H]1C(=O)N[C@H](C=O)CCCNC(=N)N.Cl.Cl` (stereo partly drawn) [Example 7, 2-(N-methyl)aminocyclohexyl-carbonyl-L-Pro-L-Arginine Aldehyde Dihydrochloride], the “Human Thrombin Inhibition Levels” value on human thrombin is 18.4 × 10^6 l/mole.

Regarding `Cl.Cl.Cl.N=C(N)NCCC[C@@H](C=O)NC(=O)[C@@H]1CCCN1C(=O)C1CCCCC1N.O` (stereo partly drawn) [Example 8, 2-aminocyclohexylcarbonyl-L-Pro-L-Arginine Aldehyde Trihydrochloride Monohydrate], the “Index … Percent Relative Activity” value in data set [1] is listed as 15%. The “Human Thrombin Inhibition Levels” value at human thrombin is reported as 39 × 10^6 l/mole.
